Measurements: a melting point compilation (Tetko et al.; mined from patent text by program, amines drawn as free bases though some values may be those of a salt)

| melting point [°C] | Structure (SMILES) |
| --- | --- |
| 57.5 to 58.5 | CCCCCCCCCCCC(=O)N1c2ccccc2C(=O)N(C(C)C)S1(=O)=O |
| 107 | CNC(=S)Nc1cc(C)ccc1N1CCOCC1 |
| 161 to 162 | CCCCOc1ccc2sc(-c3ccccn3)nc(=O)c2c1 |
| 248 to 249 | Cc1cccc(C)c1Sc1c(O)cc(-c2ccccc2)oc1=O |
| 164 | NS(=O)(=O)c1cc(C(=O)Nn2cnc3cc(C(F)(F)F)ccc32)ccc1Cl |
| 125 | CSCCn1c2ccc(C)cc2c(=O)c2c1cnn2C |
| 210 to 212 | Cn1c(C#N)c(C#N)n(-c2cc(O)c(Cl)cc2F)c1=O |
| 200 to 204 | COC(=O)Nc1nc2cc(SCC3CCCCC3)ccc2[nH]1 |
| 102 to 104 | CCC(=O)NCCC1CCc2ccc3c(c21)OCO3 (centres undefined) |
| 178 to 180 | Cc1c(Br)cccc1N1CCn2c(cc3ccccc32)C1=O |
| 224 to 226 | CC1=C(C(=O)N[C@H](C)c2ccccc2)[C@H](c2ccc(F)cc2Cl)N=C(c2nccs2)N1 |
| 210 | CS(=O)(=O)C(=C1CN(C(c2ccccc2)c2ccccc2)C1)c1ccccc1 |
| 128 to 130 | CCOC(=O)C(C#N)C1(C#N)C(=O)N(Cc2ccc(C)cc2)c2c(C)cccc21 (centres undefined) |
| 146 | CC(=O)c1cccc2c1Oc1c(C(C)=O)cccc1N2[Si](C)(C)C(C)(C)C |
| 162 to 164 | COc1cc2c(NC3CCCC3)c(C#N)cnc2cc1F |
| 130 to 131 | c1ccc(-c2cc[nH]c2-c2ccccc2)cc1 |
| 208 to 210 | CC(C)CNc1sc(-c2cc[nH]n2)c2c1C(=O)CC(C)(C)C2 |
| 82 to 83 | COC(=O)Nc1nc2ccccc2n1C(=O)NCC1(C)CC(NC(=O)n2c(NC(=O)OC)nc3ccccc32)CC(C)(C)C1 (centres undefined) |
| 151 to 152 | COc1ccc(CC(C)(C)C(=O)O)cc1C(=O)NCc1ccc(C(F)(F)F)cc1 |
| 152 to 154 | CC(C)(C)OC(=O)CNC(=O)c1nc2cc(Cl)ccc2o1 |
| 143 to 145 | CCC(C(C)=CC(CNC(=O)Cc1n[nH]c(=O)c2ncccc12)=NO)[N+](=O)[O-] (centres undefined) |
| 175 | CCOC(=O)CCc1nc2cccnc2n(-c2cccc(NC(=O)Nc3ccccc3OC)c2)c1=O |
| 112 | O=C(OCc1ccccc1)c1cc(C(=O)OCc2ccccc2)n(CCBr)n1 |
| 232 to 233 | CCc1cn(C2CC(O)C(CS(=O)(=O)Cc3ccccc3)O2)c(=O)[nH]c1=O (centres undefined) |

| melting point [°C] | Structure (SMILES) |
| --- | --- |
| 193 to 194 | Cc1ccc(-c2ccc(C(=O)Nc3ccc4cc(CN5CCCC5)cnc4c3C)cc2F)cc1 |
| 164 | O=C(Nc1ccccc1S(=O)(=O)c1ccccc1)N[C@@H](Cc1ccc(Oc2nccc3ccncc23)cc1)C(=O)O |
| 206 to 216 | Cc1c(Cl)cc(C(=O)C=CC(=O)O)cc1Cl |
| 156 | CC(C)(C)c1cc(C(C)(CC(=O)O)c2ccc(O)c(C(C)(C)C)c2)ccc1O |
| 110 to 115 | CC(=O)O[C@@](Cn1cncn1)(c1ccc(F)cc1F)[C@@H](C)S(=O)(=O)Cl |
| 66 to 78 | CCOCCn1c(N2CCCN(CCC3(c4cccc(Cl)c4)CCN(C(=O)c4cc(OC)c(OC)c(OC)c4)C3)CC2)nc2ccccc21 (centres undefined) |
| 150 to 152 | O=C1c2ccccc2-c2c1c1ccccc1c(=O)n2CCCCCCNS(=O)(=O)c1ccccc1 |
| 102 | COc1c(F)cc(F)c(C(N)=O)c1F |
| 175 to 177 | COc1ccc2c(c1)C(c1ccccc1)NN=C2Cc1c(Cl)cncc1Cl (centres undefined) |
| 129 to 130 | O=C(/C=C/[C@@H]1[C@H]2CC(=O)O[C@H]2C[C@H]1OC(=O)c1ccc(-c2ccccc2)cc1)CCc1ccccc1 |
| 89 to 102 | CC(Oc1ccc(S(C)=O)cc1)c1ccnc2ncnn12 (centres undefined) |
| 170 | COc1ccc(C(=O)N(C)Cc2cccc(-c3ccc(CC4SC(=O)NC4=O)cc3)c2)cc1 (centres undefined) |
| 121 to 123 | CN1c2ccc(Cl)cc2C(c2ccccc2Br)=Nc2cccnc21 |
| 85 to 87 | CCCCCCCCCCCCC[C@@H](CC(N)=O)OC(=O)[C@H](CCCC(=O)OCc1ccccc1)NC(=O)c1cnc2ccccc2c1 |
| 95 | CC(C)n1c(=O)n(CC2CNCCO2)c2ccccc21 (centres undefined) |
| 160 | COc1cc2c(cc1OC)CN(CCCOc1ccc(NC(=O)c3nccc4ccccc34)cc1)CC2 |
| 143 | O=C(NCc1cccnc1)N(c1ccccc1)c1ccccc1 |
| 73 to 76 | CCN(CC)C(=O)C(C)(C)n1cc(C)c(-c2ccccc2Cl)n1 |
| 37 to 39 | Cc1ccc(OCCCCCCN2CCN(c3nccs3)CC2)cc1 |
| 44 to 46 | O=[N+]([O-])c1ccc2c(c1OS(=O)(=O)C(F)(F)F)CCC2 |
| 124 to 125 | CC1(C2CCCC2)Cc2cc(OCCBr)c(Cl)c(Cl)c2C1=O (centres undefined) |
| 158 to 160 | CC(C)(C)OC(=O)N1CCC(Oc2c(F)cc3c(=O)c(C(=O)O)cn(C4CC4)c3c2F)C1 (centres undefined) |
| 205 | N#Cc1ncn2c(C(F)(F)F)cc(-c3ccc(Cl)cc3)nc12 |
| 96 to 98 | CCC(C#Cc1cccc(Oc2ccccn2)c1)N(O)C(N)=O (centres undefined) |

| melting point [°C] | Structure (SMILES) |
| --- | --- |
| 127 to 132 | COc1cc2c(cc1O)CC(C)N(Cc1cc(OC)c(OC)c(OC)c1)C2 (centres undefined) |
| 176 | CS(=O)(=O)c1ccc(C(=O)c2ccc(Cl)cc2)cc1 |
| 109 to 111 | Cc1cc(C=O)ccc1NC(=O)OC(C)(C)C |
| 163 to 165 | O=C1N(CCCCN2CCN(c3n[nH]c4cc(F)ccc34)CC2)CSC12CCCCC2 |
| 127 | C[C@@H]1CCNC[C@@H]1N(C)c1nccc2[nH]ccc12 |
| 221 to 227 | CS(=O)(=O)N(N)C(=O)c1cc([N+](=O)[O-])c(C(F)(F)F)cc1N |
| 230 to 232 | Nc1nc2c(sc(=O)n2COCCO)c(=O)[nH]1 |
| 182 to 184 | CC(C)(C)S(=O)(=O)N1C[C@@H](F)C[C@@H]1c1cc(F)cc(C#N)c1 |
| 102 to 103 | N#CC(C#N)=CN(Cc1ccc(Cl)c(Cl)c1)c1cc(C(F)(F)F)cc(C(F)(F)F)c1 |
| 54 to 56.5 | CNc1ccc2cccc(OCCOc3nccnc3N3CCNCC3)c2n1 |
| 126 to 127 | O=C(CCCS(=O)c1ccc(Cl)cc1)NO (centres undefined) |
| 67 to 68 | CN(Cc1ccccc1)C1(C#N)CCN(Cc2ccccc2)CC1 |
| 249 to 250 | COc1ccc(C2=NN(c3ccc(C(=O)Nc4ccc(C5=NNC(=O)CC5C)cc4)cc3)C(=O)C3CC=CCC23)cc1OC (centres undefined) |
| 208 to 210 | CCc1cc(C(=O)c2ccccc2Cl)c(-n2c(C)nnc2CNC(=O)c2cc3ccccc3n2CC(=O)O)s1 |
| 123 to 126 | C=CCc1cccc(C[C@H](NC(=O)OC(C)(C)C)[C@H](O)CCl)c1 |
| 187 to 189 | Cc1cccc(S(=O)(=O)NC(=O)NCCCCCCNC(=O)NS(=O)(=O)c2cccc(Cl)c2)c1 |
| 234 | Cc1ccc(-c2nc3c(C)cccc3c(=O)[nH]2)c(Cl)c1 |
| 87 to 90 | O=C(O)c1c(F)c(F)c(O)c(Cl)c1F |
| 123 to 124 | C/C(=C\c1ccc(O)cc1)c1ccc2c(c1)SC(C)(C)S2 |
| 142 to 145 | COC(=O)C1=C(CCc2cccs2)NC(CC(=O)N2CCN(C)CC2)=C(C(=O)OC)C1c1c(Cl)cccc1Cl (centres undefined) |
| 167 to 168 | CCOC(=O)c1cc2c(OCc3ccccc3)cc(C)cc2[nH]1 |
| 144 to 146 | CCc1ccc(Oc2cnc[nH]c2=O)cc1 |
| 90 to 91 | O=S1(=O)OCC(COC(C(F)(F)F)(C(F)(F)F)C(F)(F)F)(COC(C(F)(F)F)(C(F)(F)F)C(F)(F)F)CO1 |
| 148 to 149 | Cc1c(-c2ccc(Cl)cc2)c2cc(OC(C)(C)C(=O)O)ccc2n1C |

| melting point [°C] | Structure (SMILES) |
| --- | --- |
| 117 to 120 | COc1ccc(C(=O)c2ccccc2Cl)c(Cl)c1Cl |
| 180 to 181 | CC(C)(C)C(NC(=O)c1ccc(Br)cc1)NC(=NC#N)Nc1cccnc1 (centres undefined) |
| 109 to 110 | Cc1ccc(S(=O)(=O)OCC2COc3ccc4nocc4c3O2)cc1 (centres undefined) |
| 154 to 156 | Cc1cc(=O)[nH]c(SCc2ccccn2)n1 |
| 137 to 138 | CC(=S)NCC1CN(c2ccc(N3CCC(=CC#N)C(F)C3)c(F)c2)C(=O)O1 (centres undefined) |
| 153 to 155 | O=C(O)c1ccc(OC2CC2)cc1 |
| 102 to 104 | CC(=O)c1cccc(Oc2ncccc2C(=O)NCc2ccc([C@H](C)O)cc2)c1 |
| 169 to 172 | NC(=O)N[C@@H]1CCC[C@@H](O)c2sccc21 (relative stereo) |
| 130 | CCN(CC)C(=O)CCS(=O)c1cc(-c2ccccc2)nc2ccccc12 (centres undefined) |
| 245 | Cc1cn(-c2nccc3ccccc23)cc1C(=O)O |
| 126 to 128 | O=C(C=CCc1ccccc1)NCCCCCC(=O)NO |
| 287 to 289 | CCOC(=O)c1cnc2c(F)cc(I)cc2c1O |
| 130 to 132 | O=C1C(CCS(=O)c2ccccc2)C(=O)N(c2ccccc2)N1c1ccccc1 (centres undefined) |
| 248 | O=C(O)CCc1cc2nc(Cl)ccc2n1S(=O)(=O)c1ccc2ncsc2c1 |
| 127 to 128 | CCc1cccc2c(/C=C(\C)C(=O)O)cc(OC)c(OCOC)c12 |
| 93 to 95 | C[C@@H](CO)[C@](O)(Cn1cncn1)c1ccc(F)cc1F |
| 249 to 252 | CCC(=O)NC(C)(C)c1ccc(C(=O)Nc2cn3cc(Cl)ccc3n2)cc1 |
| 149 to 150 | CCCCOC1c2ccccc2C(=O)N(CC(C)C)C1(/C=C/C(N)=O)CNC(=O)OC(C)(C)C (centres undefined) |
| 160 to 162 | C[Si]1(C(CN)CC(=O)O)CCCCC1 (centres undefined) |
| 247 | COc1ccc(Cn2c(N)c(Br)c(=O)[nH]c2=O)cc1 |
| 168 to 170 | Cc1ncnc(Nc2ccc(C(=O)CCC3CCN(Cc4ccccc4)CC3)cc2)c1C |

| Structure (SMILES) | melting point [°C] |
| --- | --- |
| ClC1=Nc2ccccc2Oc2ccccc21 | 53 to 55 |
| CCCCN1CC=C(c2cccc3[nH]ccc23)CC1 | 91 |
| CC(C)C(=O)Nc1cccc(-c2ccnc3c(C(=O)c4cccs4)cnn23)c1 | 180 to 181 |
| N#Cc1ccccc1C(Cl)(Cl)Cl | 98.9 to 100 |
| COc1cc(C(=O)OC(C)(C)C)ccc1Cn1cc(C=O)c2ccc(C(=O)NCC3CCCC3)cc21 | 134 to 135 |
| O=C1OC(CN2CCC3(CC2)C(=O)NCN3c2ccccc2)CN1c1ccccc1 (centres undefined) | 166 to 168 |
